Measured values published in PubChem BioAssay (NCI).
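Values below derive from 48-hour exposures of cells grown in 96-well plates, with endpoints linearly interpolated between the two concentrations bracketing the appropriate inhibition level. Here, GI50 denotes the concentration required for 50% inhibition of growth. TGI is the concentration that stops growth completely.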

System: MDA-MB-468 breast
Experiment: NCI tumour cell line growth inhibition, 48 h

Compound	GI50 [nM]	TGI [µM]
O=c1cc(-c2ccc(Cl)cc2)[nH]c2ccccc12	18600	> 100
CC/C=C\C[C@H]1C/C=C2/C(=O)C=C[C@H]2C/C=C\CCCC(=O)O1	1560	7.95
CCOC(=O)/C(=C/CC/C(C)=C/CC/C(C)=C/CCc1ccoc1)CC(=O)N1CCCCC1	2110	7.26
COc1ccc(C(=O)/C=C/c2sc(Cl)nc2Cl)cc1	1380	3.51
CCN(C(=O)N1CCN(c2cc3c(cc2F)c(=O)c(C(=O)O)cn3C2CC2)CC1)c1nc(-c2ccccc2)cs1	2520	8.82
CN(C)c1ccc(C(=S)c2ccc(N(C)C)cc2)cc1	2050	8.21
Nc1nc(N)c2c(n1)NC(c1sc(Cl)nc1Cl)CC(c1ccccc1)=N2 (stereo not drawn)	2120	8.48
Cc1c2cnccc2c(C)c2c1c1cc(O)ccc1n2C(C)C	2120	4.74
C1=N[C@]23C(=N[C@H](N=C2NCc2ccco2)[C@]24N=CNC2=N[C@H]3N=C4NCc2ccco2)N1	26600	> 100
C[C@@H](Nc1nc(N[C@H](C)C(F)(F)F)nc(-c2cccc(Cl)n2)n1)C(F)(F)F	41900	> 100
Oc1ccc(NC(=S)Nc2ccccc2)cc1	> 100000	> 100
Cc1cc(F)c(C(=O)Nc2cccc(-c3nncn3C(C)C)n2)cc1-n1cnc(C2CC2)c1	7760	83.3
O=C(NNc1nc2cc(F)cc(F)c2n2cccc12)c1ccncn1	> 30000	> 30
O=C(NC1CCN(Cc2ccccc2)CC1)c1cc(-c2cccnc2)nc2ccc(Cl)cc12	4480	57
Clc1ccc(-c2cc(-c3ccccc3)nc(N3CCN(CCCNc4ccnc5cc(Cl)ccc45)CC3)n2)cc1	352	1.61
COc1ccccc1-n1cnc(N)c1C(=O)c1cc(OC)c(OC)c(OC)c1	1850	6.57
Cc1nnc(C[C@@H]2C=C(c3ccc(Cl)cc3)c3ccccc3-n3c(C)nnc32)o1	745	22.8
C=CC(=O)N[C@@H]1CN(c2nc(Nc3cn(C)nc3OC)c3ncn(C)c3n2)C[C@H]1F	25.6	0.265
O=C(COc1ccc(/C=C2\Oc3ccc4ccccc4c3C2=O)cc1)c1ccc([N+](=O)[O-])cc1	1070	3.05
